Data on one molecule can be found in patent publication US5276034A, “Substituted imidazolyl-alkyl-piperazine and -diazepine derivatives” (Syntex Pharmaceutical Ltd., priority 1991, dated 1994).

Test [1] deals with non-stimulated intestinal transit of the charcoal meal. In words: Intestinal transit of a charcoal meal in conscious mice, non-stimulated. The class given is in vivo. The settings on record: Mus musculus, po, 15 min pre-treatment, read-out: % Inhibition Normal Transition. The procedure:
The test used is a modification of the method of Macht and Barba-Gose, J. Amer. Pharm. […] In the present model, intestinal transit in conscious mice (15-20 g) was accelerated with an oral dose of barium chloride (300 mg/kg) administered at the same time as the charcoal meal. The animals were sacrificed 10 minutes later and the distance travelled by the charcoal measured. 1-diphenyl-methyl-4-[(2-(4-methylphenyl)-5-methylimidazol-4-yl)methyl]-piperazine trihydrochloride was given as a 15 minute oral pre-treatment and its effect on non-stimulated or barium-stimulated intestinal transit of the charcoal meal was calculated.

Test [2] concerns abnormal neurones in brain after bilateral common carotid artery occlusion. The test can be described thus: Five minute model of bilateral common carotid artery occlusion in the gerbil with 72 hour survival. In kind it is in vivo. The settings on record: then b.i.d. for 72 h. The procedure:
In vivo protective effects of the compounds of this invention against the deleterious effects of cerebral ischemia are determined by use of the standard gerbil brain ischemia model.
A. Five minute model of bilateral common carotid artery occlusion in the gerbil with 72 hour survival
2) Sham-operated animals--The animals were anesthetized with a halothane-nitrous oxide-oxygen mixture. […] The microscopic sections were prepared and counted as in 1) above. In this case 7 animals were used and 100 microscopic fields were counted.
3) Untreated ischemic controls--In this case animals were subjected to 5 minute bilateral carotid artery occlusion with 72 hour survival. The microscopic sections were prepared and counted as in 1) above. In this case 12 animals were used and 120 microscopic fields were counted.
4) Parenteral, 15 minute pre-ischemia treated--The animals were given 500 mg/kg i.p. of 1-diphenylmethyl-4-[(2-(4-methylphenyl)-5-methylimidazol-4-yl)methyl]piperazine trihydrochloride 15 minutes prior to ischaemic insult. The treatment was repeated b.i.d. for 72 hours. The microscopic sections were prepared and counted as in 1) above. In this case 10 animals were used and 100 microscopic fields were counted.
5) Parenteral 15 minute pre-ischemic treated--The animals were given 250 mg/kg i.p. of 1-diphenylmethyl-4-[(2-(4-methylphenyl)-5-methylimidazol-4-yl)methyl]piperazine trihydrochloride 15 minutes prior to ischaemic insult. Treatment was repeated b.i.d. for 72 hours. The microscopic sections were prepared and counted as in 1) above. In this case 6 animals were used and 60 microscopic fields were counted.
6) Parenteral 15 minute post-ischemia treated--The animals were given 500 mg/kg i.p. of 1-diphenylmethyl-4-[(2-(4-methylphenyl)-5-methylimidazol-4-yl)methyl]piperazine trihydrochloride 15 minutes after ischaemic insult. The treatment was repeated b.i.d. for 72 hours. The microscopic sections were prepared and counted as in 1) above. In this case 9 animals were used and 90 microscopic fields were counted.
7) Oral, pre-ischemia treated--The animals were given 5 mg/kg p.o. b.i.d. of 1-diphenyl-methyl-4-[(2-(4-methylphenyl)-5-methylimidazol-4-yl)-methyl]piperazine trihydrochloride for 3 days and on the 4th day at 1 hour pre-ischaemic. Treatment was repeated b.i.d. for 72 hours. The microscopic sections were prepared and counted as in 1) above. In this case 11 animals were used and 110 microscopic fields were counted.
8) Oral, pre-ischemia treated--The animals were given 10 mg/kg p.o. of 1-diphenyl-methyl-4-[(2-(4-methylphenyl)-5-methylimidazol-4-yl)-methyl]piperazine trihydrochloride for 3 days and on 4th day at 1 hour pre-ischaemia.Treatment was repeated b.i.d. for 72 hours. The microscopic sections were prepared and counted as in 1) above. In this case 9 animals were used and 90 microscopic fields were counted.

Turning to `Cc1ccc(-c2nc(CN3CCN(C(c4ccccc4)c4ccccc4)CC3)c(C)[nH]2)cc1.Cl.Cl.Cl` [1-diphenylmethyl-4-[(2-(4-methylphenyl)-5-methylimidazol-4-yl)methyl]piperazine trihydrochloride], the inhibition at 5 mg/kg in test [1] (5 mg/kg p.o.) is -19.3%. The inhibition at 25 mg/kg in test [1] (25 mg/kg p.o.) was -28.7%. In test [1] (60 mg/kg p.o.), the inhibition at 60 mg/kg is -16.1%. The “mean % abnormal neurones” value in test [2] (5 mg/kg p.o. b.i.d. 3 days and 1 h pre-ischemia) amounted to 3.00±1.00%; in test [2] (10 mg/kg p.o. 3 days and 1 h pre-ischemia) it was 22.00±3.10%; in test [2] (250 mg/kg i.p. 15 min pre-ischemia), 27.20±4.30%; in test [2] (500 mg/kg i.p. 15 min post-ischemia), 41.70±4.60%; in test [2] (500 mg/kg i.p. 15 min pre-ischemia) it was 26.90±3.30%.

What is called inhibition is the change of the read-out against control, counted positive when it falls.
